Assays:
human CYP11B2 = human CYP11B2 (Homo sapiens (Human), UniProt P19099); test: G-402 cellular enzyme assay, human CYP11B2 (aldosterone release, HTRF); format: cell-based; conditions: G-402 cells expressing human CYP11B2; 1 μM Deoxycorticosterone
Excerpt: (§1) Herein we identified the use of the G-402 cell line as a host cell to ectopically express (transiently or stably) enzymes of the CYP11 family. Specifically we developed stable G-402 cells expressing ectopically human CYP11B1, human CYP11B2, human CYP11A1, cynmolgus CYP11B1 or cynomolgus CYP11B2 enzyme activity. Importantly the identified cell line G-402 expresses co-factors (adrenodoxin and adrenodoxin reductase) important for the activity of the CYP11 family and no relevant enzyme activity of the CYP11 family (in comparison to H295R cells) was detected in these cells. Therefore the G-402 cell line is uniquely suited as a host cell for the ectopic expression of enzymes from the CYP11 family.
(§2) The expression plasmids contains the ORF for either huma/cyno CYP11B1 or CYP11B2 under the control of a suitable promoter (CMV-promoter) and a suitable resistance marker (neomycin). Using standard techniques the expression plasmid is transfected into G-402 cells and these cells are then selected for expressing the given resistance markers. Individual cell-clones are then selected and assessed for displaying the desired enzymatic activity using 11-Deoxycorticosterone (Cyp11B2) or 11-Deoxycortisol (Cyp11B1) as a substrate.
(§3) G-402 cells expressing CYP11 constructs were established as described above and maintained in McCoy's 5a Medium Modified, ATCC Catalog No. 30-2007 containing 10% FCS and 400 μg/ml G418 (Geneticin) at 37° C. under an atmosphere of 5% CO2/95% air. Cellular enzyme assays were performed in DMEM/F12 medium containing 2.5% charcoal treated FCS and appropriate concentration of substrate (0.3-10 uM 11-Deoxycorticosterone, 11-Deoxycortisol or Corticosterone). For assaying enzymatic activity, cells were plated onto 96 well plates and incubated for 16 h. An aliquot of the supernatant is then transferred and analyzed for the concentration of the expected product (Aldosterone for CYP11B2; Cortisol for CYP11B1). The concentrations of these steroids can be determined using HTRF assays from CisBio analyzing either Aldosterone or Cortisol.
(§4) Inhibition of the release of produced steroids can be used as a measure of the respective enzyme inhibition by test compounds added during the cellular enzyme assay. The dose dependent inhibition of enzymatic activity by a compound is calculated by means of plotting added inhibitor concentrations (x-axes) vs. measured steroid/product level (y-axes). The inhibition is then calculated by fitting the following 4-parameter sigmoidal function (Morgan-Mercer-Flodin (MMF) model) to the raw data points using the least squares method:
(§5) [formula] wherein, A is the maximum y value, B is the EC50 factor determined using XLFit, C is the minimum y value and D is the slope value.
(§6) EC50 values for compounds claimed herein were tested with the G402-based assay system described. Cyp11B2 enzyme activity was tested in presence of 1 μM Deoxycorticosterone and variable amounts of inhibitors; Cyp11B1 enzyme activity was tested in presence of 1 μM Deoxycortisol and variable amounts of inhibitors.

human CYP11B1 = human CYP11B1 (Homo sapiens (Human), UniProt P15538); test: G-402 cellular enzyme assay, human CYP11B1 (cortisol release, HTRF); format: cell-based; conditions: G-402 cells expressing human CYP11B1; 1 μM Deoxycortisol
Excerpt: as §1, §2, §3, §4, §5, §6

[1] = test system: rat model of chronic kidney disease; conditions: cited from earlier work; for plasma aldosterone: FAD286 following 4 weeks of treatment, spironolactone at 4 and 8 weeks; for renal effects (albuminuria, azotemia, renovascular hypertrophy, glomerular injury, PAI-1 and osteopontin mRNA, tubulointerstitial fibrosis): angiotensin II and high salt treatment
[2] = test system: rats with experimental heart failure; conditions: cited from earlier work
[3] = test system: patients with primary aldosteronism; conditions: cited from earlier work

Chain of human CYP11B1 (P15538 25-503): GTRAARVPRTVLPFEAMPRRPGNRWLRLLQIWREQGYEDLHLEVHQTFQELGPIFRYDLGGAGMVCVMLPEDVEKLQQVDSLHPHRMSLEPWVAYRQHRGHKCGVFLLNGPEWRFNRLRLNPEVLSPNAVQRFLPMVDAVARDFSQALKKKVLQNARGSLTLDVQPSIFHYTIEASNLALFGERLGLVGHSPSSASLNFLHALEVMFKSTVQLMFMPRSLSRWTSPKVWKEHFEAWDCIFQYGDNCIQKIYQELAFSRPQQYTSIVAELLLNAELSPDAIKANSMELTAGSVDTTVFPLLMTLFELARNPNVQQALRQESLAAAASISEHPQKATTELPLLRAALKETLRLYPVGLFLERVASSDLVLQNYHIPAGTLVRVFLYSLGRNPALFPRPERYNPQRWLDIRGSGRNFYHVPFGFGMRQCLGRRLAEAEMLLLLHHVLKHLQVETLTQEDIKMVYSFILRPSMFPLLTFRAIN
Chain of human CYP11B2 (P19099 25-503): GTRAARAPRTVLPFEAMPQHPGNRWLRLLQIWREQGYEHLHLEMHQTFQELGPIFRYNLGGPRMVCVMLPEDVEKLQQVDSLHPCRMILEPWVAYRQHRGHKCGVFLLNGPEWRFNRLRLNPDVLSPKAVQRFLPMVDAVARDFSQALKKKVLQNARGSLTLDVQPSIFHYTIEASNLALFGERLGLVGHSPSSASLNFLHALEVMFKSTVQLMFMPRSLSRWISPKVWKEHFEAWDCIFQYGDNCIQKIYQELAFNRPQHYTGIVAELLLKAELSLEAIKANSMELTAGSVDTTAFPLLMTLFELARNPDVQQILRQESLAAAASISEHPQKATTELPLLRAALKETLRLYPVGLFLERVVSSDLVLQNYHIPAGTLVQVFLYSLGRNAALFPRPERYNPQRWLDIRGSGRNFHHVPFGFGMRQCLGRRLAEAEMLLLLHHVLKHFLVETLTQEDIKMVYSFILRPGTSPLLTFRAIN

Row | SMILES | EC50 (human CYP11B2) [nM] | EC50 (human CYP11B1) [nM] | plasma aldosterone [1] | renal effects (albuminuria, azotemia, renovascular hypertrophy, glomerular injury, PAI-1 and osteopontin mRNA, tubulointerstitial fibrosis) [1] | angiotensin II and salt-stimulated PAI-1 mRNA expression in the aorta and the heart [1] | also measured
1 | CN1C(=O)CCc2cc(-c3cncc(CC(=O)Nc4cccc(Cl)c4)c3)ccc21 [Example 29, N-(3-Chloro-phenyl)-2-[5-(1-methyl-2-oxo-1,2,3,4-tetrahydro-quinolin-6-yl)-pyridin-3-yl]-acetamide] | 12.7 | 307 |  |  |  | 
2 | CN1C(=O)CCc2cc(-c3cncc(CC(=O)Nc4cccc(Cl)n4)c3)ccc21 [Example 30, N-(6-Chloro-pyridin-2-yl)-2-[5-(1-methyl-2-oxo-1,2,3,4-tetrahydro-quinolin-6-yl)-pyridin-3-yl]-acetamide] | 6.8 | 40.5 |  |  |  | 
3 | N#Cc1ccc([C@H]2CCCc3cncn32)cc1 [FAD286] |  |  | reduced | prevented these renal effects | not | blood pressure and cardiovascular function and structure [2]: improved; kidney function and morphology [2]: improve
4 | N#Cc1ccc([C@H]2CCc3cncn32)c(F)c1 [LCI699] |  |  |  |  |  | selectivity (effects on the glucocorticoid axis) [3]: poor selectivity; blood pressure ([3]; oral): mildly decreased; circulating aldosterone levels ([3]; oral): significantly lower; hypokalemia ([3]; oral): corrected
5 | CC(=O)S[C@@H]1CC2=CC(=O)CC[C@]2(C)[C@H]2CC[C@@]3(C)[C@@H](CC[C@@]34CCC(=O)O4)[C@H]12 [spironolactone] |  |  | increased | prevented these renal effects | enhanced | 

Reference: patent US9458135B2, “Dihydroquinoline-2-one derivatives” (Hoffmann-La Roche Inc., priority 2014, dated 2016)
